Results taken from PMC10952572, “Improved PIEZO1 agonism through 4‐benzoic acid modification of Yoda1” (British Journal of Pharmacology, 2023).

Key:
[1] = target: T1, mPIEZO1 (Mus musculus, UniProt E2JF22); assay: Pre-treatment with analogue before Yoda1 stimulus, Ca2+ assay in mPIEZO1-TREx cells; assay type: cell-based; conditions: for 0.5 μM Yoda1-evoked peak ΔCa2+i (ΔF340/380), median fold difference compared to DMSO pretreatment: mPIEZO1-TREx, 10 μM compound 30 min pretreatment before 0.5 μM Yoda1
T1 construct: expressed in transfected cells

[2] = target: T2, human TRPC5 (Homo sapiens, UniProt Q9UL62); assay: Intracellular Ca2+ measurement in hTRPC5-TREx cells; assay type: cell-based; conditions: 10 μM
T2 construct: expressed in transfected cells
T2 sequence (Q9UL62 1-973): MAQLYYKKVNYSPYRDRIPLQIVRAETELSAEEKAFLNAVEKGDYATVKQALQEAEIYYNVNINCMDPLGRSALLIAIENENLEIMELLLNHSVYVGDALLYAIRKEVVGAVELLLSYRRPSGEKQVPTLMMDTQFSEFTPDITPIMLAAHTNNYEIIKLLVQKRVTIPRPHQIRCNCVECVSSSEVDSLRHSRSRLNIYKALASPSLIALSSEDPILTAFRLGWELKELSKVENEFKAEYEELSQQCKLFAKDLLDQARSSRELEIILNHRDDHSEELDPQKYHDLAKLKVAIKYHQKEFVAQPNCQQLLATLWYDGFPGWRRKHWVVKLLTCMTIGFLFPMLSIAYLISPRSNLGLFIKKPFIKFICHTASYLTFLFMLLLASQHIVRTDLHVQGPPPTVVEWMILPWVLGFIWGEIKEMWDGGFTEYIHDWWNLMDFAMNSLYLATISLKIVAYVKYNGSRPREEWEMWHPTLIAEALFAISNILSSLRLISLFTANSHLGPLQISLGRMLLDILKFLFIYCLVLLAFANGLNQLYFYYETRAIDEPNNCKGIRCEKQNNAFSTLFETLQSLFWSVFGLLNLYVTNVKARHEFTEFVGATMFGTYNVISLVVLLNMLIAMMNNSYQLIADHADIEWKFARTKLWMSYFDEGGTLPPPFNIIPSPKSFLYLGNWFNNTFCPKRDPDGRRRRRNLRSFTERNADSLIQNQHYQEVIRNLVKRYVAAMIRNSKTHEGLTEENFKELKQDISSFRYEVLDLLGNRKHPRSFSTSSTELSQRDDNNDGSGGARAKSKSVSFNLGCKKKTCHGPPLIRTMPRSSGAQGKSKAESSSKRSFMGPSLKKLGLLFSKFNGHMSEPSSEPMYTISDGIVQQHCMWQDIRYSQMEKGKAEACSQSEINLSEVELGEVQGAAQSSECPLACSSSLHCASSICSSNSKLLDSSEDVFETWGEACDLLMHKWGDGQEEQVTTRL
Method: HEK T‐REx™ 293 cells stably expressing tetracycline‐regulated human TRPC5 have been described previously (Zeng et al., [2004]). For the TRPC5‐expressing cells, selection was achieved by including 5 μg·ml^−1 blasticidin and 400 μg·ml^−1 zeocin in the cell medium. To induce expression, cells were incubated with 1 μg·ml^−1 tetracycline for 24 h prior to experiments. These cells are referred to as hTRPC5‐TREx.
HEK 293‐TREx cells and their stably transfected derivatives or transiently transfected HEK 293 or HeLa cells were seeded at a density of 7.5 × 10^4 cells per well into poly‐D‐lysine‐coated 96‐well plates. The plates were either commercially pre‐coated with poly‐D‐lysine (Greiner Bio‐One #655946) or (Greiner Bio‐One #655090) were coated in‐house with 35 μl of a 10 μg·ml^−1 poly‐D‐lysine (Bio‐Techne, Cultrex # 3439‐100‐01) in sterile deionised water per well for at least 24 h and rinsed three times with 100 μl per well sterile D‐PBS before addition of cells. HUVECs were seeded into tissue culture‐treated 96‐well plates (Greiner Bio‐One #655090) at a density of either 2.5 × 10^4 cells 24 h before experimentation or 1.25 × 10^4 cells 48 h before experimentation. Cells were incubated with 2 μM Fura‐2‐AM (Molecular Probes™) in the presence of 0.01% (wt./vol.) pluronic F127 (Sigma‐Aldrich #P2443) in standard bath solution (SBS) for 1 h at 37°C. Cells were washed with SBS for 30 min at room temperature. Alternatively, if inhibitors were being tested, these were added at this time, immediately following a wash in SBS. (−)‐Englerin A (Akbulut et al., [2015]) was used in SBS containing 0.01% pluronic acid as a dispersing agent to minimise aggregation of compound. Unless otherwise stated, the final concentration of DMSO was 0.2% (vol./vol). […] Measurements were made at room temperature on a 96‐well fluorescence plate reader (FlexStation 3, Molecular Devices, Sunnyvale, CA, USA) controlled by SoftMax Pro software v7.0.3. […]

[3] = In-house aqueous solubility in universal aqueous buffer; assay type: physicochemical; conditions: for Solubility in aqueous buffer relative to Yoda1: universal aqueous buffer pH 7.4
Method: Standard curves for each test compound were constructed. DMSO‐dissolved test compounds were added to universal aqueous buffer (45 mM ethanolamine, 45 mM KH2PO4 and 45 mM KOAc, pH 7.4): acetonitrile 80:20 (298.5 μl) at a final DMSO concentration of 0.5%. Samples were incubated at room temperature with 300 rpm shaking for 30 min; 200 μl of each well was transferred to a 96‐well polypropylene V‐bottomed collection plate, and absorbance readings were taken at 250–500 nm in 10 nm increments. Thus, the λ max was identified at which concentration versus absorbance was plotted to provide standard curves.
After filtration through hydrophilic PTFE 0.2 μm filters, 160 μl sample was transferred to wells of a 96‐well polypropylene V‐bottomed collection plate and 40 μl acetonitrile was added to each well. Absorbance readings were taken at 250–500 nm in 10 nm increments. Solubility was calculated at the appropriate λ max with reference to the standard curve.

T1 sequence (E2JF22 whole entry): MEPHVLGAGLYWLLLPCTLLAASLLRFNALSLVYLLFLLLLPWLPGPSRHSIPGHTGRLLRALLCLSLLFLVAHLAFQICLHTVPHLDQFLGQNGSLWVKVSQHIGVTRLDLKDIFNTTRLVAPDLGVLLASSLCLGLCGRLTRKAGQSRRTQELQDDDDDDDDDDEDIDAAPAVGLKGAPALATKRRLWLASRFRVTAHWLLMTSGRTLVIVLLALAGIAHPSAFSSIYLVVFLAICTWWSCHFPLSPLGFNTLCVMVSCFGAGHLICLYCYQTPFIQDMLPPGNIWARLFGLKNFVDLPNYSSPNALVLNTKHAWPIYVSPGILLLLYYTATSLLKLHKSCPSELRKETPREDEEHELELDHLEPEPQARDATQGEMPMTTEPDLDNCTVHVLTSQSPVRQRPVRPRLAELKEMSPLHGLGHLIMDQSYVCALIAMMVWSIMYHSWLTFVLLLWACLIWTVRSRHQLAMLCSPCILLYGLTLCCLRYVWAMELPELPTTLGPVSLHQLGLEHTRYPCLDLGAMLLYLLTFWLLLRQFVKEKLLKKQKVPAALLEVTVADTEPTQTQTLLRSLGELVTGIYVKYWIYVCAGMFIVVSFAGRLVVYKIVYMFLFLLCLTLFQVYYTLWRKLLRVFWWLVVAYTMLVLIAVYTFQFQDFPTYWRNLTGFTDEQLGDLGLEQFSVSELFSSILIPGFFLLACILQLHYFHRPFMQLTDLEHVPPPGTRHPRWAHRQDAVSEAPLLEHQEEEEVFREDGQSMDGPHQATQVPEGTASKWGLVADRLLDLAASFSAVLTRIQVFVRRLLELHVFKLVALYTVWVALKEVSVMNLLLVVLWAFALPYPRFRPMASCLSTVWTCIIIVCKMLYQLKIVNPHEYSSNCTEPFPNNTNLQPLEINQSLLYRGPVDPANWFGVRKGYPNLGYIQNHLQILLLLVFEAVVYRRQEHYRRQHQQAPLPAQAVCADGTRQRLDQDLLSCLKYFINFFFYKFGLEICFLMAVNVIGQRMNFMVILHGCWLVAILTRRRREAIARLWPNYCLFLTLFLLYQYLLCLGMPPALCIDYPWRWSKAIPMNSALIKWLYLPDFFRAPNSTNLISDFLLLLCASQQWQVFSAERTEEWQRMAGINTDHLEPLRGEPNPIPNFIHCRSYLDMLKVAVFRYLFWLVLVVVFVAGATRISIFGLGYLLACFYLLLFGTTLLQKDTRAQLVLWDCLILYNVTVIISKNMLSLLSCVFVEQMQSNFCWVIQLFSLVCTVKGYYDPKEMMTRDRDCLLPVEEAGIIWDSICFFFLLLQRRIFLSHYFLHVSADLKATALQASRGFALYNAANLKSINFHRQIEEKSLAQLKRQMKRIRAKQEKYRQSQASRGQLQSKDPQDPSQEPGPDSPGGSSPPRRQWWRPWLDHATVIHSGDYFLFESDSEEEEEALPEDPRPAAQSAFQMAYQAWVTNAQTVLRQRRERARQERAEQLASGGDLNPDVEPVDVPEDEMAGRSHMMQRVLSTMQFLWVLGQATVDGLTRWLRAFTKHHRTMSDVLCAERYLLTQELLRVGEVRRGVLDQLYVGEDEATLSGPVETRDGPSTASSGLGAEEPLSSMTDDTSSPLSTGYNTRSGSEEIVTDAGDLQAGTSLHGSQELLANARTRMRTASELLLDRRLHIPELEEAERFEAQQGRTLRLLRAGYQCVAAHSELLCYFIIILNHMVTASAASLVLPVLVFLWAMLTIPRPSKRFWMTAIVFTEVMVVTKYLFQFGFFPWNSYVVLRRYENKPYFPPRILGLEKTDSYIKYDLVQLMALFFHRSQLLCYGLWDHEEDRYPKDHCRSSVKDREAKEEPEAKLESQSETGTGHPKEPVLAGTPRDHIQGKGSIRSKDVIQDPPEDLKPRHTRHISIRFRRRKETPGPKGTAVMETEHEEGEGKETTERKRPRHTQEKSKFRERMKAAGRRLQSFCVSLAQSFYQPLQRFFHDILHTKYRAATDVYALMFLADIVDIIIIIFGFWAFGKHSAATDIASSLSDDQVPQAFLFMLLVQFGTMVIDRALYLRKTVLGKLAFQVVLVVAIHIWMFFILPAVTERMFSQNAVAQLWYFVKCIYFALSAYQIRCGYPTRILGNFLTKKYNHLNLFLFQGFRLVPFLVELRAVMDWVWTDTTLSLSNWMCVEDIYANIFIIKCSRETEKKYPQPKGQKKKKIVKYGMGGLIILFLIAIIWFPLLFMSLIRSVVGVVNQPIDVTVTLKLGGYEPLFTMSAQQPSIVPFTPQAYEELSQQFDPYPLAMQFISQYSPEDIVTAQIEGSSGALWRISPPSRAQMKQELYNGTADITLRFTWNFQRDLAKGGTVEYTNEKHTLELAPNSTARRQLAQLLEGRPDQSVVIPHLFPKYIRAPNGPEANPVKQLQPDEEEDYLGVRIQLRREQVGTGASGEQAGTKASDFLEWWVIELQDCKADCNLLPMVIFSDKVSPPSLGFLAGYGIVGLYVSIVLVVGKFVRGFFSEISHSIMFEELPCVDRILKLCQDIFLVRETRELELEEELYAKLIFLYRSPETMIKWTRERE

O=C(O)c1ccccc1-c1nnc(SCc2c(Cl)cccc2Cl)s1 [KC157]
0.5 μM Yoda1-evoked peak ΔCa2+i (ΔF340/380), median fold difference compared to DMSO pretreatment [1]: +1.2 fold
Inhibition of the action of Yoda1 ([1]; mPIEZO1 channels, 10 μM for 30 min prior to Yoda1): failed to inhibit the action of Yoda1

O=C(O)c1ccc(-c2nnc(SCc3c(Cl)cccc3Cl)s2)cc1 [KC159]
Ca2+ response in cells expressing TRPC5 in place of PIEZO1 [2]: fail to evoke responses
Solubility in aqueous buffer relative to Yoda1 [3]: at least 160 times
0.5 μM Yoda1-evoked peak ΔCa2+i (ΔF340/380), median fold difference compared to DMSO pretreatment [1]: −2.1 fold

Clc1cccc(Cl)c1CSc1nnc(-c2cnccn2)s1 [Yoda1, 2‐[5‐[[(2,6‐dichlorophenyl)methyl]thio]‐1,3,4‐thiadiazol‐2‐yl]pyrazine]
Ca2+ response in cells expressing TRPC5 in place of PIEZO1 [2]: fail to evoke responses
solubility at 1.5 h ([3]; universal aqueous buffer, pH 7.4, aqueous buffer, kinetic from dmso stock, lower limit of detection 0.1 µM, read-out: Estimated solubility in universal aqueous buffer): < 0.1 µM

O=C([O-])c1ccc(-c2nnc(SCc3c(Cl)cccc3Cl)s2)cc1.[K+] [KC289]
Ca2+ response in cells expressing TRPC5 in place of PIEZO1 [2]: fail to evoke responses
Solubility in aqueous buffer relative to Yoda1 [3]: at least 160 times
0.5 μM Yoda1-evoked peak ΔCa2+i (ΔF340/380), median fold difference compared to DMSO pretreatment [1]: −2.8 fold
